This assay deals with Beta-TC6. Kind of assay: Increase in insulin release in mouse BetaTC6 cells assessed as relative insulin release activity at 10 uM incubated for 2 to 4 hrs by FRET based HTRF assay relative to sunitinib. In kind it is functional. (In general: TR-FRET usually uses a lanthanide donor and a delayed reading to cut background.)
For `Cc1cccc(-c2cnc3cccnn23)c1`, the Activity came to 10%.

For `COc1cc(-c2ccc3ncc(-c4cccs4)n3n2)ccc1O`, the Activity is given as 20%.

As for `c1ccc(-c2cnc3cnc(-c4ccsc4)cn23)cc1`, the Activity worked out at 20%.

With `c1cnc2ccc(-c3ccc4nnc(-c5cscn5)n4c3)cc2c1`, the Activity was 50%.

For `c1ccc(Oc2cccc(-c3ccc4nnc(-c5ccncc5)n4c3)c2)cc1`, the Activity is listed as 20%.

`CS(=O)(=O)Nc1cccc(-c2cn3c(-c4ccc5ncccc5c4)cnc3cn2)c1`: the Activity is reported as 20%.

Consider `CS(=O)(=O)Nc1cccc(-c2cn3c(-c4cccs4)cnc3cn2)c1`, for which the Activity is given as 20%.

`O=C(O)CCc1ccc(-c2cnc3cnc(-c4ccccc4Cl)cn23)cc1`: the Activity is recorded as 50%.

As for `CN(C)C(=O)c1ccc(-c2cnc3cnc(-c4ccccc4Oc4ccccc4)cn23)cc1`, the Activity was 20%.

Take `Nc1cccc(-c2cn3c(-c4cccc(F)c4)cnc3cn2)c1`: the Activity was determined as 20%.

Take `c1ccc(-c2cn3c(-c4ccc5c(c4)OCO5)cnc3cn2)cc1`: the Activity was 50%.

Turning to `Nc1cccc(-c2ccc3nnc(-c4cccc(Cl)c4)n3c2)c1`, the Activity amounted to 50%.

On to `CN(C)CCNC(=O)c1cccc(-c2ccc3nnc(-c4ccc5nccnc5c4)n3c2)c1`, for which the Activity result is “>=100%”.

For `CN(C)C(=O)c1ccc(-c2ccc3nnc(-c4cccc(C(F)(F)F)c4)n3c2)cc1`, the Activity is 20%.

With `Cc1cc(-c2cnc3cccnn23)cc(C)c1O`, the Activity was 10%.

As for `NC(=O)c1ccc(-c2ccc3ncc(-c4cccc(OC(F)(F)F)c4)n3n2)cc1`, the Activity is given as 20%.

For `COc1cc(-c2cnc3cnc(-c4ccc5c(c4)OCO5)cn23)ccc1O`, the Activity worked out at 20%.

Turning to `CN(C)c1cccc(-c2ccc3nnc(-c4cscn4)n3c2)c1`, the Activity is given as 50%.

Take `Fc1cccc(-c2cnc3cnc(-c4ccc(N5CCNCC5)cc4)cn23)c1`: the Activity was determined as 10%.

For `CN(C)/C(=C1\N=C(c2ccccc2)OC1=O)c1cnc2cccnn12`, the Activity is recorded as 10%.

As to `Cn1ccc2cc(-c3cnc4cnc(-c5cccc(C(N)=O)c5)cn34)ccc21`, the Activity was 20%.

`c1csc(-c2cnc3cnc(-c4ccncc4)cn23)c1`: the Activity worked out at 20%.

`Fc1cccc(-c2cn3c(-c4ccccc4)cnc3cn2)c1`: the Activity is recorded as 20%.

In the case of `COc1cccc(-c2ccc3nnc(-c4cscn4)n3c2)c1`, the Activity was found to be 50%.

For the compound `Nc1ccc(-c2ccc3nnc(-c4cccc(C(F)(F)F)c4)n3c2)cn1`, the Activity is reported as 20%.

On to `COc1ccc(CNc2ccc3ncc(-c4ccc(O)cc4)n3n2)cc1`, for which the Activity turned out to be 20%.

As for `CN(C)CC#Cc1ccc2nnc(-c3ccccc3)n2c1`, the Activity is 10%.

For the compound `CN(C)c1ccc(-c2cnc3cnc(-c4ccc(NCCN5CCOCC5)nc4)cn23)cc1`, the Activity was 50%.

As to `Fc1cccc(-c2cn3c(-c4ccc5c(c4)OCO5)cnc3cn2)c1`, the Activity is given as 50%.

For `O=S1(=O)CCN(CC#Cc2ccc3nnc(-c4cscn4)n3c2)CC1`, the Activity is recorded as 10%.

On to `FC(F)(F)Oc1cccc(-c2nnc3ccc(C#Cc4ccccc4)cn23)c1`, for which the Activity is listed as 20%.

For `COc1cc(-c2cnc3cnc(-c4cnn(C)c4)cn23)ccc1O`, the Activity turned out to be 50%.

For the compound `CCCC/C=C/c1cn2c(NC(=O)Cc3cccc(OC)c3)cnc2cn1`, the Activity came out at 10%.

For `CC(=O)c1cccc(-c2cnc3cnc(-c4cccnc4)cn23)c1`, the Activity is given as 20%.

Take `O=C(NC1CC1)c1ccc(-c2cn3c(-c4ccc(O)cc4)cnc3cn2)cc1`: the Activity is reported as 20%.

`Cc1ccc(CNc2ccc3ncc(-c4ccc(O)cc4)n3n2)c(C)c1`: the Activity is recorded as 20%.

`Cc1cc(-c2cn3c(-c4ccncc4)cnc3cn2)cc(C)c1O`: the Activity worked out at 20%.

As to `Cn1ccc2cc(-c3cnc4cnc(-c5cccc(C(=O)NCCO)c5)cn34)ccc21`, the Activity came out at 20%.

Turning to `Cc1ccccc1-c1cn2c(-c3ccc4c(c3)OCO4)cnc2cn1`, the Activity came to 20%.

For `CCC(CO)Nc1ccc2ncc(-c3ccccc3Cl)n2n1` (configuration not stated), the Activity amounted to 10%.

Regarding `CC(C)[C@@H](CO)Nc1ccc2ncc(-c3ccc(N)cc3)n2n1`, the Activity came out at 50%.

Take `COc1ccc(-c2ccc3nnc(-c4ccc(O)c(OC)c4)n3c2)cn1`: the Activity is recorded as 50%.

For the compound `CNc1ccc2ncc(/C=C\CCCO)n2n1`, the Activity was 10%.

In the case of `CS(=O)(=O)Nc1cccc(-c2cn3c(-c4cccnc4)cnc3cn2)c1`, the Activity is 20%.

Regarding `OCc1ccc(-c2ccc3ncc(-c4cccnc4)n3n2)cc1`, the Activity was 20%.

Regarding `Cc1ccccc1-c1cnc2cnc(-c3cccs3)cn12`, the Activity stood at 10%.

On to `c1cnc2cc(-c3nnc4ccc(-c5ccoc5)cn34)ccc2n1`, for which the Activity is on record as 50%.

On to `c1ccc(-c2cnc3cnc(-c4cccs4)cn23)cc1`, for which the Activity was determined as 20%.

On to `COc1cc(-c2nnc3ccc(-c4ccc(N5CCN(C)CC5)cc4)cn23)ccc1O`, for which the Activity is reported as 20%.

On to `c1csc(-c2cn3c(-c4cccs4)cnc3cn2)c1`, for which the Activity is given as 50%.

`COc1ccc(-c2ccc3nnc(-c4ccc(OCCCN(C)C)cc4)n3c2)cc1OC`: the Activity is 50%.

Take `COc1ccc(-c2cnc3ccc(NCc4ccccn4)nn23)cc1OC`: the Activity was found to be 20%.

On to `CN(C)C(=O)c1ccc(-c2cnc3cnc(-c4ccsc4)cn23)cc1`, for which the Activity was determined as 20%.

On to `CS(=O)(=O)Nc1cccc(-c2ccc3nnc(-c4ccccc4)n3c2)c1`, for which the Activity came out at 50%.

Take `Cn1cc(-c2cn3c(-c4ccc(O)cc4)cnc3cn2)cn1`: the Activity was 20%.

For the compound `CN1CCN(C(=O)c2cccc(-c3cnc4cnc(-c5cccc(Cl)c5)cn34)c2)CC1`, the Activity came out at 20%.

Regarding `CC(C(=O)Nc1cnc2cnc(-c3cccc([N+](=O)[O-])c3)cn12)c1ccccc1` (configuration not stated), the Activity amounted to 20%.

For the compound `CSc1ccc(-c2cn3c(-c4cccc(CO)c4)cnc3cn2)cc1`, the Activity is 20%.

Turning to `Fc1cccc(-c2cnc3cnc(-c4ccc5c(c4)OCO5)cn23)c1`, the Activity turned out to be 20%.

For `CN(C)c1ccc(-c2cnc3cnc(-c4ccc(CO)cc4)cn23)cc1`, the Activity worked out at 50%.

Consider `N#Cc1ccc(-c2cnc3cnc(-c4cccs4)cn23)cc1`, for which the Activity amounted to 20%.

With `COc1cncc(-c2ccc3nnc(-c4cccc(OC(F)(F)F)c4)n3c2)c1`, the Activity was found to be 50%.

With `COc1ccc(-c2ccc3nnc(-c4cscn4)n3c2)c(C)c1`, the Activity was found to be 50%.

Regarding `Cn1ccc2cc(-c3cn4c(-c5ccc6ncccc6c5)cnc4cn3)ccc21`, the Activity entry is recorded as “>=100%”.

`OCc1ccc(-c2cn3c(-c4cccs4)cnc3cn2)cc1`: the Activity was found to be 20%.

As to `CN(C)c1ccccc1-c1cn2c(-c3cccs3)cnc2cn1`, the Activity was found to be 20%.

Take `Cn1cc(-c2cnc3cnc(-c4cc5ccccc5s4)cn23)cn1`: the Activity is listed as 20%.

`COc1cccc(-c2ccc3ncc(-c4cccc(Cl)c4)n3n2)c1`: the Activity is reported as 10%.

As to `COc1ccc(-c2ccc3ncc(-c4cccc(Cl)c4)n3n2)cc1OC`, the Activity is reported as 20%.

Turning to `c1ccc(-c2nnc3ccc(-c4ccc5c(c4)OCO5)cn23)cc1`, the Activity amounted to 50%.

`OCc1ccc(-c2ccc3nnc(-c4ccncc4)n3c2)cc1`: the Activity is given as 20%.

With `c1ccc(Cn2cc(-c3cn4c(-c5ccc6c(c5)OCO6)cnc4cn3)cn2)cc1`, the Activity is listed as 50%.

For the compound `COc1ccc(-c2cnc3ccc(NCCCO)nn23)cc1`, the Activity came to 10%.

Take `COc1cc(-c2cnc3cnc(-c4ccc(N)nc4)cn23)ccc1O`: the Activity was determined as 20%.

As for `CC(=O)Nc1cccc(-c2cn3c(-c4ccc(C(=O)N(C)C)cc4)cnc3cn2)c1`, the Activity is 20%.

Regarding `O=C(NC1CC1)c1ccc(-c2cn3c(-c4ccccc4)cnc3cn2)cc1`, the Activity was found to be 20%.

In the case of `COc1cc(-c2cnc3ccc(-c4cccc(OC(F)(F)F)c4)nn23)ccc1O`, the Activity is listed as 10%.

For the compound `CC(=O)Nc1cccc(-c2cnc3ccc(-c4cccnc4)nn23)c1`, the Activity came out at 10%.

As to `CC(C(=O)Nc1cnc2cnc(-c3ccc4c(c3)OCO4)cn12)c1ccccc1` (configuration not stated), the Activity worked out at 20%.

Take `CN(C)c1ccc(-c2cnc3cnc(-c4cccc(C(N)=O)c4)cn23)cc1`: the Activity worked out at 20%.

With `COc1cccc(-c2cn3c(NC(=O)Cc4ccsc4)cnc3cn2)c1`, the Activity turned out to be 20%.

As for `CNC(=O)c1cccc(-c2ccc3nnc(-c4ccc5c(c4)OCO5)n3c2)c1`, the Activity was 20%.

Regarding `CCCNc1ccc2ncc(-c3ccc(C(=O)O)cc3)n2n1`, the Activity was found to be 10%.

`c1nc(-c2nnc3ccc(-c4ccc(N5CCOCC5)cc4)cn23)cs1`: the Activity is on record as 50%.

Take `NC(=O)c1cccc(-c2ccc3nnc(-c4cscn4)n3c2)c1`: the Activity is 20%.

Consider `Fc1cccc(-c2cnc3cnc(-c4ccccc4)cn23)c1`, for which the Activity was 20%.

With `Fc1ccc(-c2ccc3nnc(-c4cscn4)n3c2)cc1Cl`, the Activity came out at 20%.

As to `O=C(NC1CCCC1)c1ccc(-c2cn3c(-c4ccc(CO)cc4)cnc3cn2)cc1`, the Activity amounted to 20%.

For `CN(C)c1cccc(-c2cn3c(NC(=O)c4ccccc4)cnc3cn2)c1`, the Activity came out at 50%.

As for `c1csc(-c2cn3c(-c4ccc5c(c4)OCO5)cnc3cn2)c1`, the Activity is recorded as 50%.

On to `OCc1cccc(-c2cnc3cnc(-c4ccccc4)cn23)c1`, for which the Activity turned out to be 20%.

In the case of `Fc1ccc(-c2cn3c(-c4ccsc4)cnc3cn2)cc1Cl`, the Activity was 20%.

As for `COc1ccc(CNc2ccc3ncc(-c4ccc(OC)cc4OC)n3n2)cc1`, the Activity is recorded as 10%.

Take `O=C(O)CCc1ccc(-c2cnc3cnc(-c4cccs4)cn23)cc1`: the Activity is reported as 20%.

Consider `O=C(Cc1ccsc1)Nc1cnc2cnc(-c3ccccc3F)cn12`, for which the Activity is on record as 10%.

As for `O=C(Nc1cnc2cnc(-c3ccsc3)cn12)c1cccs1`, the Activity is recorded as 20%.

Take `Oc1cccc(-c2nnc3ccc(-c4cccc5ncccc45)cn23)c1`: the Activity worked out at 20%.

These data come from ChEMBL document CHEMBL3727361, “Nitrogen bicyclic compounds as inhibitors for Scyl1 and Grk5” (2014).
